Test results reported in PubChem BioAssay AID248 (DTP/NCI, 2004).
Several values for one entry are separate records, joined by “and”; a condition that tells them apart may be missing. Identical values can stand only once. Toxic doses and inconclusive results are not listed. Rule as the data show it: active = T/C of 150% or more; inactive = T/C below 125%.

Tested on: L1210 leukemia ip in BDF1 mice, survival T/C
Test: NCI In Vivo Anticancer Drug Screen. Data for tumor model L1210 Leukemia (intraperitoneal) in B6D2F1 (BDF1) mice
Conditions: endpoint: mean survival time, higher = longer survival
Summary of the method: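 Transplantable tumor model; survival measured in treated vs vehicle control mice. Value = treated/control.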

[1] = dose: 50.0 mg/kg/injection, schedule: Q01DX001 (ip), vehicle: saline
[2] = dose: 200.0 mg/kg/injection, schedule: Q01DX001 (ip), vehicle: saline
[3] = dose: 100.0 mg/kg/injection, schedule: Q01DX009 (ip), vehicle: saline with Tween-80
[4] = dose: 200.0 mg/kg/injection, schedule: Q01DX009 (ip), vehicle: saline with Tween-80
[5] = dose: 400.0 mg/kg/injection, schedule: Q01DX009 (ip), vehicle: saline with Tween-80
[6] = dose: 100.0 mg/kg/injection, schedule: Q04DX003 (ip), vehicle: Klucel (hydroxypropylcellulose) (HPC)
[7] = dose: 200.0 mg/kg/injection, schedule: Q04DX003 (ip), vehicle: Klucel (hydroxypropylcellulose) (HPC)
[8] = dose: 50.0 mg/kg/injection, schedule: Q01DX001 (ip), vehicle: carboxymethylcellulose (CMC)
[9] = dose: 100.0 mg/kg/injection, schedule: Q01DX001 (ip), vehicle: carboxymethylcellulose (CMC)
[10] = dose: 200.0 mg/kg/injection, schedule: Q01DX001 (ip), vehicle: carboxymethylcellulose (CMC)
[11] = dose: 400.0 mg/kg/injection, schedule: Q01DX001 (ip), vehicle: carboxymethylcellulose (CMC)
[12] = dose: 50.0 mg/kg/injection, schedule: Q01DX009 (ip), vehicle: saline
[13] = dose: 100.0 mg/kg/injection, schedule: Q01DX009 (ip), vehicle: saline
[14] = dose: 100.0 mg/kg/injection, schedule: Q04DX003 (ip), vehicle: saline
[15] = dose: 200.0 mg/kg/injection, schedule: Q04DX003 (ip), vehicle: saline
[16] = dose: 400.0 mg/kg/injection, schedule: Q04DX003 (ip), vehicle: Klucel (hydroxypropylcellulose) (HPC)
[17] = dose: 100.0 mg/kg/injection, schedule: Q04DX003 (ip), vehicle: saline with Tween-80
[18] = dose: 100.0 mg/kg/injection, schedule: Q04DX002 (ip), vehicle: Klucel (hydroxypropylcellulose) (HPC)
[19] = dose: 200.0 mg/kg/injection, schedule: Q04DX002 (ip), vehicle: Klucel (hydroxypropylcellulose) (HPC)
[20] = dose: 100.0 mg/kg/injection, schedule: Q01DX001 (ip), vehicle: saline with Tween-80
[21] = dose: 200.0 mg/kg/injection, schedule: Q01DX001 (ip), vehicle: saline with Tween-80
[22] = dose: 400.0 mg/kg/injection, schedule: Q01DX001 (ip), vehicle: saline with Tween-80
[23] = dose: 100.0 mg/kg/injection, schedule: Q01DX009 (ip), vehicle: Klucel (hydroxypropylcellulose) (HPC)
[24] = dose: 200.0 mg/kg/injection, schedule: Q01DX009 (ip), vehicle: Klucel (hydroxypropylcellulose) (HPC)
[25] = dose: 400.0 mg/kg/injection, schedule: Q01DX009 (ip), vehicle: Klucel (hydroxypropylcellulose) (HPC)

Measured: T/C

[Cu+2].[NH-]C1C(Cl)CCC2C(Cl)CC[N-]C12 (stereo unspecified)
inactive: dose: 6.0 mg/kg/injection, schedule: Q04DX003 (ip), vehicle: Klucel (hydroxypropylcellulose) (HPC) 91 % of control | dose: 12.0 mg/kg/injection, schedule: Q01DX001 (ip), vehicle: other 108 % of control | dose: 12.0 mg/kg/injection, schedule: Q04DX003 (ip), vehicle: Klucel (hydroxypropylcellulose) (HPC) 102 % of control | dose: 25.0 mg/kg/injection, schedule: Q01DX001 (ip), vehicle: other 108 % of control

Cn1c(=O)c2[nH]c(C3CC4C=CC3C4)nc2n(C)c1=O (stereo unspecified)
inactive: [1] 93 % of control | dose: 100.0 mg/kg/injection, schedule: Q01DX001 (ip), vehicle: saline 104 % of control | [2] 98 % of control

CCCC(CCCC(=O)O)C(=O)c1ccccc1 (stereo unspecified)
inactive: [3] 101 % of control | [4] 104 % of control | [5] 100 % of control

Cc1ccc(N2C=[N+](C)c3ccc(C)cc3C2)cc1
inactive: [6] 100 % of control | [7] 97 % of control

CCc1c(CNc2ccc(C(=O)NC(CC(=O)O)CC(=O)O)cc2)ccc2nc(N)nc(N)c12
inactive: dose: 0.25 mg/kg/injection, schedule: Q01DX009 (ip), vehicle: saline 114 % of control | dose: 1.0 mg/kg/injection, schedule: Q01DX009 (ip), vehicle: saline 103 % of control | dose: 1.0 mg/kg/injection, schedule: Q04DX003 (ip), vehicle: saline 118 % of control

CCC1CCCC1=O (stereo unspecified)
inactive: [1] 95 % of control | [2] 90 % of control

ClCCc1ccc(-n2cnc3c(Cl)ncnc32)cc1
inactive: [8] 104 % of control | [9] 106 % of control | [10] 101 % of control | [11] 98 % of control

C1CCN(CCC2CCNCC2)C1
inactive: dose: 25.0 mg/kg/injection, schedule: Q01DX009 (ip), vehicle: saline 106 % of control | dose: 25.0 mg/kg/injection, schedule: Q04DX003 (ip), vehicle: saline 97 % of control | [12] 95 % of control | dose: 50.0 mg/kg/injection, schedule: Q04DX003 (ip), vehicle: saline 97 % of control | [13] 106 % of control | [14] 96 % of control and 100 % of control

[C-]#[N+]C([N+]#[C-])=S(C)C
inactive: [12] 102 % of control | [13] 109 % of control | [14] 103 % of control | dose: 200.0 mg/kg/injection, schedule: Q01DX009 (ip), vehicle: saline 105 % of control | [15] 101 % of control

CC(=O)/C=N/NC(=O)C(O)C(O)C(O)C(O)CO (stereo unspecified)
inactive: [14] 102 % of control | [15] 94 % of control | dose: 400.0 mg/kg/injection, schedule: Q04DX003 (ip), vehicle: saline 91 % of control

CC(=O)/C(=C\c1ccccc1)c1ccccc1
inactive: [6] 96 % of control | [7] 91 % of control | [16] 98 % of control

ClC1(Cl)C2CC3C4C=CC(C4)C3C21 (stereo unspecified)
inactive: dose: 100.0 mg/kg/injection, schedule: Q01DX001 (ip), vehicle: Klucel (hydroxypropylcellulose) (HPC) 108 % of control | dose: 200.0 mg/kg/injection, schedule: Q01DX001 (ip), vehicle: Klucel (hydroxypropylcellulose) (HPC) 100 % of control

O=C(/C=N/O)c1cccnc1
inactive: [17] 97 % of control

CC(C)(C)c1cc(C[P+](c2ccccc2)(c2ccccc2)c2ccccc2)cc(C(C)(C)C)c1O
inactive: dose: 1.56 mg/kg/injection, schedule: Q01DX009 (ip), vehicle: saline 106 % of control | dose: 1.56 mg/kg/injection, schedule: Q04DX003 (ip), vehicle: saline 91 % of control | dose: 3.12 mg/kg/injection, schedule: Q01DX009 (ip), vehicle: saline 105 % of control | dose: 3.12 mg/kg/injection, schedule: Q04DX003 (ip), vehicle: saline 96 % of control | dose: 6.25 mg/kg/injection, schedule: Q04DX003 (ip), vehicle: saline 91 % of control

CC1(C)N=C(N)N=C(N)N1NC(=O)c1ccc(Cl)cc1
inactive: [17] 100 % of control | dose: 200.0 mg/kg/injection, schedule: Q04DX003 (ip), vehicle: saline with Tween-80 103 % of control

CN(C)Cc1c(C(O)(c2ccccc2)c2ccccc2)ccc2ccccc12
inactive: [8] 90 % of control | [9] 100 % of control | [10] 96 % of control | [11] 90 % of control

O=C(O)C1CC(c2ccccc2)=C(c2ccccc2)CC1C(=O)O (stereo unspecified)
inactive: dose: 50.0 mg/kg/injection, schedule: Q04DX002 (ip), vehicle: Klucel (hydroxypropylcellulose) (HPC) 105 % of control | [18] 102 % of control and 114 % of control and 100 % of control | [19] 102 % of control and 100 % of control

O=[N+]([O-])c1ccccc1N=P(c1ccccc1)(c1ccccc1)c1ccccc1
inactive: dose: 50.0 mg/kg/injection, schedule: Q01DX009 (ip), vehicle: DMSO 91 % of control | dose: 100.0 mg/kg/injection, schedule: Q01DX009 (ip), vehicle: DMSO 88 % of control | dose: 100.0 mg/kg/injection, schedule: Q04DX003 (ip), vehicle: DMSO 93 % of control | dose: 200.0 mg/kg/injection, schedule: Q04DX003 (ip), vehicle: DMSO 93 % of control

Nc1cc2ccccc2c2c1ccc1ccccc12
inactive: dose: 87.5 mg/kg/injection, schedule: Q04DX003 (ip), vehicle: Klucel (hydroxypropylcellulose) (HPC) 91 % of control | [6] 97 % of control | dose: 175.0 mg/kg/injection, schedule: Q04DX003 (ip), vehicle: Klucel (hydroxypropylcellulose) (HPC) 93 % of control | [7] 94 % of control | dose: 350.0 mg/kg/injection, schedule: Q04DX003 (ip), vehicle: Klucel (hydroxypropylcellulose) (HPC) 102 % of control

CCOC(=O)c1cnc(=O)[nH]c1Nc1ccccc1Br
inactive: dose: 100.0 mg/kg/injection, schedule: Q04DX003 (ip), vehicle: gum acacia 95 % of control | dose: 200.0 mg/kg/injection, schedule: Q04DX003 (ip), vehicle: gum acacia 90 % of control | dose: 400.0 mg/kg/injection, schedule: Q04DX003 (ip), vehicle: gum acacia 95 % of control

CCCCN(C)N=Nc1c[nH]c(=O)[nH]c1=O
inactive: dose: 75.0 mg/kg/injection, schedule: Q01DX001 (ip), vehicle: other 95 % of control

CCC(=O)Nc1ccc(OS(=O)(=O)N(C)C)cc1
inactive: [20] 100 % of control | [21] 95 % of control | [22] 100 % of control

CCCCCSP(=S)(C(C)C)C(C)C
inactive: [20] 95 % of control | [21] 93 % of control | [22] 91 % of control

CCOC1(CC)CN(Cc2ccccc2)CCO1 (stereo unspecified)
inactive: [23] 103 % of control | [24] 93 % of control | [25] 98 % of control

Cc1ccc(S(=O)(=O)Nc2ccc(Cl)c(Cl)c2)cc1
inactive: [6] 97 % of control | [7] 96 % of control | [16] 94 % of control

C=C(c1ccccc1)C(C)C(=O)OCC (stereo unspecified)
inactive: [3] 96 % of control | [4] 101 % of control | [5] 98 % of control

Brc1cc(Br)c(-c2c(Br)cc(Br)cc2Br)c(Br)c1
inactive: dose: 50.0 mg/kg/injection, schedule: Q01DX009 (ip), vehicle: Klucel (hydroxypropylcellulose) (HPC) 111 % of control | [23] 93 % of control | [6] 108 % of control | [24] 101 % of control | [7] 105 % of control | [25] 98 % of control | [16] 95 % of control

CCOc1ccc2nc(C)cc(C)c2c1
inactive: [18] 98 % of control | [19] 112 % of control

C[N+](C)(C)/N=C/C1=C(Cl)CCCC1
inactive: dose: 3.13 mg/kg/injection, schedule: Q04DX002 (ip), vehicle: Klucel (hydroxypropylcellulose) (HPC) 94 % of control | dose: 6.25 mg/kg/injection, schedule: Q04DX002 (ip), vehicle: Klucel (hydroxypropylcellulose) (HPC) 102 % of control | dose: 12.5 mg/kg/injection, schedule: Q04DX002 (ip), vehicle: Klucel (hydroxypropylcellulose) (HPC) 97 % of control | dose: 75.0 mg/kg/injection, schedule: Q01DX001 (ip), vehicle: carboxymethylcellulose (CMC) 114 % of control
